Values of other authors as cited in patent publication US20080008727A1, “Compositions comprising adapalene dissolved with cyclodextrins” (GALDERMA RESEARCH & DEVELOPMENT, priority 2004, published 2008).

Solubility in water (in words): practically insoluble in water
Compound: COc1ccc(-c2ccc3cc(C(=O)O)ccc3c2)cc1C12CC3CC(CC(C3)C1)C2 [adapalene, 6-[3-(1-adamantyl)-4-methoxyphenyl]-2-naphthoic acid]
